In ChEMBL document CHEMBL1131681, “Thiazolo[4,5-d]pyrimidine thiones and -ones as corticotropin-releasing hormone (CRH-R1) receptor antagonists” (Bioorg Med Chem Lett, 1999):

Target: T1, Corticotropin-releasing factor receptor 1 (Homo sapiens, UniProt P34998)
T1 sequence (P34998 whole entry): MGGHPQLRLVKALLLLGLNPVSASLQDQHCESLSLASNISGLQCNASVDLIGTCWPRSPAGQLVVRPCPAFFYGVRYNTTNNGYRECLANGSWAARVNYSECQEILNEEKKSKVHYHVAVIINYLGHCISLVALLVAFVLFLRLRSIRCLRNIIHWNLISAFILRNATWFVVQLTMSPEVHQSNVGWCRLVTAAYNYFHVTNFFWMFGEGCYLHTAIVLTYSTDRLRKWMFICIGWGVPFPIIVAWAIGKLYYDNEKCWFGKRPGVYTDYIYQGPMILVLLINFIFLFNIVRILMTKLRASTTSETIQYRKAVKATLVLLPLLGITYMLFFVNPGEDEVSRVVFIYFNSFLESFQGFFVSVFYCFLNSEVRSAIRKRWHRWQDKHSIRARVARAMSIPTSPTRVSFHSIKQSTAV
Assay: Binding affinity against human Corticotropin releasing factor receptor 1 expressed in HEK 293E cells using [125I]TYR-oCRH
Format: cell-based, HEK293

Row | Compound | Ki [nM]
1 | CCCN(CC1CC1)c1nc(C)nc2c1sc(=S)n2-c1c(C)cc(C)cc1C | 13.1
2 | COCCN(CCOC)c1nc(C)nc2c1sc(=O)n2-c1c(C)cc(C)cc1C | 5
3 | COCCN(CCOC)c1nc(C)nc2c1sc(=O)n2-c1ccc(C(C)C)cc1Br | 14.5
4 | CCN(CC)c1nc(C)nc2c1sc(=O)n2-c1c(C)cc(C)cc1C | 14.5
5 | CCN(CC)c1nc(C)nc2c1sc(=S)n2-c1ccc(C(C)C)cc1Br | 4.1
6 | CCC(C)N(c1nc(C)nc2c1sc(=S)n2-c1ccc(C(C)C)cc1Br)C(C)CC (stereo not given) | 45.4
7 | CCCCN(CC)c1nc(C)nc2c1sc(=S)n2-c1ccc(C(C)C)cc1Br | 23.9
8 | CCCN(CC1CC1)c1nc(C)nc2c1sc(=S)n2-c1ccc(C(C)C)cc1Br | 12.6
9 | CCCN(CC1CC1)c1nc(C)nc2c1sc(=O)n2-c1c(C)cc(C)cc1C | 16.2
10 | CCCN(CC1CC1)c1nc(C)nc2c1sc(=O)n2-c1ccc(C(C)C)cc1Br | 4.1
11 | CCN(CC)c1nc(C)nc2c1sc(=O)n2-c1ccc(C(C)C)cc1Br | 9.4
12 | Cc1nc(N2CCOCC2)c2sc(=S)n(-c3ccc(C(C)C)cc3Br)c2n1 | 122
13 | CCN(CC)c1nc(C)nc2c1sc(=S)n2-c1c(C)cc(C)cc1C | 9.2
14 | COCCN(CCOC)c1nc(C)nc2c1sc(=S)n2-c1c(C)cc(C)cc1C | 8.6
15 | COCCN(CCOC)c1nc(C)nc2c1sc(=S)n2-c1ccc(C(C)C)cc1Br | 6.6
